We go through 53 molecules from PubChem BioAssay AID179 (DTP/NCI, 2004).

Each structure is given as a SMILES string. Calls of active or inactive are those of the source.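 Rule for the calls: active = compounds giving half or more protection of infected cells from virus-caused growth loss, again on retest; inactive = the rest.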 Some results are limits rather than exact numbers.

This test deals with CEM cells HIV-1 protection, formazan growth assay. Put plainly: NCI AIDS Antiviral Assay. As to conditions: for IC50: measured here: growth of uninfected CEM cells. A digest of the protocol:
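Human CEM cells, uninfected and HIV-1-infected, exposed to five drug concentrations; growth measured by soluble formazan assay and scored as percent protection from infection, with protecting compounds retested.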

For `NC1=CN(CCCO)C2=N/C(=C\c3ccco3)C(=O)N12`, the result was inactive. By EC50 is commonly meant the concentration at which the effect is half-maximal. A word on the IC50: it is the concentration needed to halve the response being measured. On to `N#Cc1c(NC(=S)Nc2ccc(Cl)cc2)sc2c1CCCC2`, for which the EC50 was above 200 µM and the IC50 was above 200 µM. Consider `Oc1ccc(O)c([P+](c2ccccc2)(c2ccccc2)c2ccccc2)c1`, for which the EC50 was above 200 µM and the 50% inhibitory concentration (IC50) was determined as 30.2 µM.

As to `Cc1nn2c(nnn2CCO)c1-c1ccccc1`, the EC50 was above 1020 µM and the IC50 amounted to 407 µM.

For the molecule `CCOC(=O)NC1C2CC(=O)C(O2)C1OCc1ccccc1` (stereo not given), the EC50 was above 309 µM and the concentration for half-maximal inhibition (IC50) amounted to 295 µM. `COc1ccc(-c2cc(-c3cc(C)cc(Cl)c3O)nc3[nH]c(=S)[nH]c(=S)c23)cc1`: the EC50 was above 200 µM and the IC50 was 4.17 µM. In the same order, the values of `CCOC(=O)c1nc2ccc(C(F)(F)F)cc2nc1Nc1ccc(OC)c(OC)c1` are above 200 µM and above 200 µM. In the same order, the values of `COC(=O)c1csc(-c2nc(CCNC(=O)OC(C)(C)C)sc2Br)n1` are above 79.4 µM and 31.6 µM. For `COC(=O)C(C#N)=C1c2ccccc2Oc2ccccc21` the same measures were above 129 µM and 66.1 µM. Consider `COc1ccc([B-]23OCC[N+]2(CNC(=O)C2=C(O)C4(O)C(=O)C5=C(O)c6c(O)cccc6C(C)(O)C5CC4C(N(C)C)C2=O)CCO3)cc1` (stereo not given), for which the EC50 is above 100 µM and the IC50 was found to be 47.9 µM. Regarding `NC(=O)NNC(=O)CCn1[nH]c(=O)c(Cl)c(Cl)c1=O`, the outcome was inactive.

For the molecule `Cc1c(CN2CCOCC2)cc(C(C)C)c(O)c1CN1CCOCC1`, the EC50 is above 200 µM and the 50% inhibitory concentration (IC50) is above 200 µM. Turning to `CC1Sc2ccccc2-c2[nH]c3ccccc3c21` (stereo not given), the EC50 is above 200 µM and the IC50 turned out to be 10.2 µM. For `COc1ccc(C(=O)N/N=C/c2c(C)n(C)n(-c3ccccc3)c2=O)cc1` the same measures were above 200 µM and above 200 µM. In the same order, the values of `S=C(NNc1ccccc1)SSSC(=S)NNc1ccccc1` are above 200 µM and 26.3 µM.

On to `O=C1c2cccc3cccc(c23)C(=O)N1c1ccc([N+](=O)[O-])cc1[N+](=O)[O-]`, for which the EC50 was above 200 µM and the half-inhibitory concentration (IC50) is 120 µM. Take `Cc1c(OCc2cccc3ccccc23)ccc2c(=O)cc(S)oc12`: the EC50 was above 200 µM and the IC50 amounted to 93.3 µM. Consider `Cc1cc(OCc2nnc3n2S(=O)(=O)c2ccccc2N3C)ccc1Cl`, for which the EC50 is above 200 µM and the IC50 is above 200 µM. For `O=C1NC(N2CCOCC2)=N/C1=C\c1ccccc1O`, the EC50 is above 200 µM and the half-maximal inhibitory concentration (IC50) was above 200 µM. For `CN1C(=O)CC(=O)N1/C(=C/c1ccccc1)c1ccccc1`, the EC50 was above 200 µM and the IC50 was 155 µM.

Turning to `O=C(O)C(C(=O)O)P(=S)(S)c1ccccc1` (stereo not given), the EC50 was above 4570 µM and the IC50 is above 4570 µM.

`O=[N+]([O-])c1ccccc1Sc1ccc(Cl)cc1`: the EC50 was above 135 µM and the IC50 was 38.9 µM.

With `COC(=O)CCCCC=C(c1cc(Cl)c(OC)c(C(=O)OC)c1)c1cc(Cl)c(OC)c(C(=O)OC)c1`, the EC50 was 6.76 µM and the half-maximal inhibitory concentration (IC50) worked out at 60.3 µM. On to `O=C1c2ccccc2C=c2c1nc1c(O)ccc3cccc2c31`, for which the EC50 was above 100 µM and the IC50 was 15.5 µM. For `O=C(Nc1ccc(Cl)c(Cl)c1)C(=O)C(C(=O)c1ccccc1F)C1OC(=O)c2ccccc21` (stereo not given) the same measures were above 195 µM and 14.1 µM. As to `Cn1c(-c2cccs2)cc(-c2ccccc2)c1-c1cccs1`, the EC50 was above 200 µM and the IC50 is above 200 µM.

On to `O=C(CO)CC(=O)C(=O)Nc1nc([N+](=O)[O-])cs1`, for which the EC50 was above 132 µM and the half-inhibitory concentration (IC50) is above 132 µM. Take `C[N+]12CCCCC1C(COc1cccc3cccnc13)CCC2` (stereo not given): the EC50 was above 200 µM and the half-maximal inhibitory concentration (IC50) came to 117 µM. In the case of `CCCCCCCCCCCCCCCCNC(=O)/C(=C\c1ccc(Cl)c(Cl)c1)NC(=O)c1ccccc1`, the EC50 was above 100 µM and the IC50 is 20 µM. As for `COc1cc2c(c(O)c1C)C(=O)CC(c1ccccc1)O2` (stereo not given), the EC50 was above 35.5 µM and the concentration for half-maximal inhibition (IC50) was above 35.5 µM. For `CCOC(=O)c1c2ccc(/C=C/C(=O)OC)ccc-2c(C(=O)OCC)c1N`, the EC50 is above 19.5 µM and the IC50 was above 19.5 µM. Consider `Cc1nccc2c(C)c3sc4ccccc4c3cc12`, for which the EC50 is above 91.2 µM and the 50% inhibitory concentration (IC50) worked out at 2.14 µM.

For the molecule `O=c1[nH]c2nccn2c(Cl)c1Br`, the EC50 was above 200 µM and the concentration for half-maximal inhibition (IC50) turned out to be 33.9 µM. `Fc1cccc(F)c1C1SCc2nc3ncccc3n21` (stereo not given): the EC50 is 39.8 µM and the IC50 came out at 61.7 µM. With `Cc1cn([C@@H]2C[C@@H]2CO)c(=O)[nH]c1=O`, the outcome was inactive. With `CC1(C)C2CCC(=O)C1CC2` (stereo not given), the EC50 is above 200 µM and the concentration for half-maximal inhibition (IC50) is above 200 µM. For `CN(C)CCNc1ccc(NCCN(C)C)c2c1C(=O)c1ncsc1C2=O`, the EC50 is above 100 µM and the half-maximal inhibitory concentration (IC50) came to 0.724 µM. For the molecule `CC(=O)C1C(=O)C(=O)N(CCN2C(=O)C(=O)C(C(C)=O)C2=O)C1=O` (stereo not given), the EC50 was above 11.2 µM and the IC50 was above 11.2 µM. Consider `CC(c1ccccc1O)C1CCCCC1N=O` (stereo not given), for which the outcome was inactive.

As for `Cc1c(C2CCSc3ccccc3N2)sc2ccccc12` (stereo not given), the EC50 is above 200 µM and the half-inhibitory concentration (IC50) is 148 µM. Turning to `O=C1C(=O)C(c2ccccc2)S(=O)(=O)C1c1ccccc1` (stereo not given), the result was inactive. As for `C/C(=C\c1ccccn1)c1ccccn1`, the EC50 is above 200 µM and the half-inhibitory concentration (IC50) was above 200 µM.

Take `CC1(C)OCC(COC(=O)NCn2cc(-c3ccccc3)nn2)O1` (stereo not given): the EC50 was above 200 µM and the IC50 was above 200 µM. Regarding `CC(C)CC1N=C(OCc2ccccc2)OC1=O` (stereo not given), the EC50 was above 200 µM and the IC50 is above 200 µM. Turning to `CC(C)=CCN1CCCn2c(=S)[nH]c3cccc(c32)C1`, the EC50 was above 200 µM and the IC50 is above 200 µM. On to `COc1cccc2c(Nc3ccc(S(=O)(=O)NC(C)=O)cc3)c3ccc([N+](=O)[O-])cc3nc12`, for which the EC50 is above 141 µM and the 50% inhibitory concentration (IC50) was determined as 95.5 µM.

Molecule `CCOc1ccc(-n2c(=O)c(N=Nc3ccccc3Cl)c(O)n(-c3ccc(Br)cc3)c2=S)cc1` returned a concentration for a half-maximal effect (EC50) above 174 µM and a 50% inhibitory concentration (IC50) above 174 µM. `Cc1c2ccccc2c(CSCC(N)C(=O)O)c2ccccc12` (stereo not given): the EC50 is above 200 µM and the half-inhibitory concentration (IC50) is above 200 µM. As for `[N-]=[N+]=Nc1c(Br)c(=O)[nH]c(=O)n1COCCO`, the outcome was inactive. `Cc1ccc(C(=O)Nc2ccc(CP(=O)(O)O)cc2CP(=O)(O)O)cc1N`: the EC50 was above 174 µM and the IC50 is above 174 µM. In the case of `Cc1cc2c(=O)cc(-c3ccc(Cl)cc3Cl)oc2c(C(=O)O)c1C`, the outcome was inactive. For the molecule `CC(=O)OC1CC2C(C)(C)C(=O)C=C[C@]2(C)C2CCC3(C)C(=CC(=O)C3c3ccoc3)[C@]12C` (stereo not given in full), the EC50 is above 22.4 µM, the result was inactive and the IC50 came out at 14.1 µM. Regarding `CCOP(=O)(OCC)C(C)(CC)N/C(=N/C(NC(C)=O)(C(F)(F)F)C(F)(F)F)NC1=NC(C(F)(F)F)(C(F)(F)F)N=C(C(F)(F)F)O1` (stereo not given), the EC50 was above 200 µM and the half-inhibitory concentration (IC50) worked out at 14.5 µM.
